Source: PubChem BioAssay (NCI)
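96-well plates; 48 h exposure; 5 concentrations. Endpoints by linear interpolation between flanking doses. Not reached: highest tested concentration assigned. TGI denotes the concentration required for complete inhibition of growth.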

Tests used:
Experiment in all cases: NCI anticancer screen, dose series, 48 h
A498 renal = tested on: A498 renal
A549 NSCLC = tested on: A549 NSCLC
ACHN renal = tested on: ACHN renal
CAKI-1 renal = tested on: CAKI-1 renal
CCRF-CEM leukemia = tested on: CCRF-CEM leukemia
COLO 205 colon = tested on: COLO 205 colon
DU-145 prostate = tested on: DU-145 prostate
EKVX NSCLC = tested on: EKVX NSCLC
HCC-2998 colon = tested on: HCC-2998 colon
HCT-116 colon = tested on: HCT-116 colon
HCT-15 colon = tested on: HCT-15 colon
HL-60(TB) leukemia = tested on: HL-60(TB) leukemia
HOP-62 NSCLC = tested on: HOP-62 NSCLC
HS 578T breast = tested on: HS 578T breast
HT29 colon = tested on: HT29 colon
IGROV1 ovarian = tested on: IGROV1 ovarian
KM12 colon = tested on: KM12 colon
LOX IMVI melanoma = tested on: LOX IMVI melanoma
M14 melanoma = tested on: M14 melanoma
MALME-3M melanoma = tested on: MALME-3M melanoma
MCF7 breast = tested on: MCF7 breast
MDA-MB-231 breast = tested on: MDA-MB-231 breast
MDA-MB-435 = tested on: MDA-MB-435
MDA-N = tested on: MDA-N
MOLT-4 leukemia = tested on: MOLT-4 leukemia
NCI-H226 lung = tested on: NCI-H226 lung
NCI-H23 lung = tested on: NCI-H23 lung
NCI-H460 lung = tested on: NCI-H460 lung
NCI-H522 lung = tested on: NCI-H522 lung
NCI/ADR-RES ovarian = tested on: NCI/ADR-RES ovarian
OVCAR-3 ovarian = tested on: OVCAR-3 ovarian
OVCAR-4 ovarian = tested on: OVCAR-4 ovarian
OVCAR-5 ovarian = tested on: OVCAR-5 ovarian
OVCAR-8 ovarian = tested on: OVCAR-8 ovarian
PC-3 prostate = tested on: PC-3 prostate
RPMI-8226 leukemia = tested on: RPMI-8226 leukemia
RXF 393 renal = tested on: RXF 393 renal
SF-268 CNS = tested on: SF-268 CNS
SF-295 CNS = tested on: SF-295 CNS
SF-539 CNS = tested on: SF-539 CNS
SK-MEL-2 melanoma = tested on: SK-MEL-2 melanoma
SK-MEL-28 melanoma = tested on: SK-MEL-28 melanoma
SK-MEL-5 melanoma = tested on: SK-MEL-5 melanoma
SK-OV-3 ovarian = tested on: SK-OV-3 ovarian
SN12C renal = tested on: SN12C renal
SNB-19 CNS = tested on: SNB-19 CNS
SNB-75 CNS = tested on: SNB-75 CNS
SR leukemia = tested on: SR leukemia
SW-620 colon = tested on: SW-620 colon
T-47D breast = tested on: T-47D breast
TK-10 renal = tested on: TK-10 renal
U251 CNS = tested on: U251 CNS
UACC-62 melanoma = tested on: UACC-62 melanoma
UO-31 renal = tested on: UO-31 renal
786-0 renal = tested on: 786-0 renal
HOP-92 NSCLC = tested on: HOP-92 NSCLC
K-562 leukemia = tested on: K-562 leukemia
UACC-257 melanoma = tested on: UACC-257 melanoma

CON(C)c1nc(N)c(C#N)c(C#N)c1C#N
TGI (A498 renal): > 10 µM
TGI (A549 NSCLC): > 10 µM
TGI (ACHN renal): > 10 µM
TGI (CAKI-1 renal): > 10 µM
TGI (CCRF-CEM leukemia): > 10 µM
TGI (COLO 205 colon): > 10 µM
TGI (DU-145 prostate): > 10 µM
TGI (EKVX NSCLC): > 10 µM
TGI (HCC-2998 colon): > 10 µM
TGI (HCT-116 colon): > 10 µM
TGI (HCT-15 colon): > 10 µM
TGI (HL-60(TB) leukemia): > 10 µM
TGI (HOP-62 NSCLC): > 10 µM
TGI (HS 578T breast): > 10 µM
TGI (HT29 colon): > 10 µM
TGI (IGROV1 ovarian): > 10 µM
TGI (KM12 colon): > 10 µM
TGI (LOX IMVI melanoma): > 10 µM
TGI (M14 melanoma): > 10 µM
TGI (MALME-3M melanoma): > 10 µM
TGI (MCF7 breast): > 10 µM
TGI (MDA-MB-231 breast): > 10 µM
TGI (MDA-MB-435): > 10 µM
TGI (MDA-N): > 10 µM
TGI (MOLT-4 leukemia): > 10 µM
TGI (NCI-H226 lung): > 10 µM
TGI (NCI-H23 lung): > 10 µM
TGI (NCI-H460 lung): > 10 µM
TGI (NCI-H522 lung): > 10 µM
TGI (NCI/ADR-RES ovarian): > 10 µM
TGI (OVCAR-3 ovarian): > 10 µM
TGI (OVCAR-4 ovarian): > 10 µM
TGI (OVCAR-5 ovarian): > 10 µM
TGI (OVCAR-8 ovarian): > 10 µM
TGI (PC-3 prostate): > 10 µM
TGI (RPMI-8226 leukemia): > 10 µM
TGI (RXF 393 renal): > 10 µM
TGI (SF-268 CNS): > 10 µM
TGI (SF-295 CNS): > 10 µM
TGI (SF-539 CNS): > 10 µM
TGI (SK-MEL-2 melanoma): > 10 µM
TGI (SK-MEL-28 melanoma): > 10 µM
TGI (SK-MEL-5 melanoma): > 10 µM
TGI (SK-OV-3 ovarian): > 10 µM
TGI (SN12C renal): > 10 µM
TGI (SNB-19 CNS): > 10 µM
TGI (SNB-75 CNS): > 10 µM
TGI (SR leukemia): > 10 µM
TGI (SW-620 colon): > 10 µM
TGI (T-47D breast): > 10 µM
TGI (TK-10 renal): > 10 µM
TGI (U251 CNS): > 10 µM
TGI (UACC-62 melanoma): > 10 µM
TGI (UO-31 renal): > 10 µM

Oc1cc(O)c2c(c1)O[C@H](c1ccc(O)c(O)c1)[C@@H](O)C2
TGI (786-0 renal): > 100 µM
TGI (A549 NSCLC): > 100 µM
TGI (ACHN renal): > 100 µM
TGI (CAKI-1 renal): > 100 µM
TGI (CCRF-CEM leukemia): > 100 µM
TGI (COLO 205 colon): > 100 µM
TGI (DU-145 prostate): > 100 µM
TGI (EKVX NSCLC): > 100 µM
TGI (HCC-2998 colon): > 100 µM
TGI (HCT-116 colon): > 100 µM
TGI (HCT-15 colon): > 100 µM
TGI (HL-60(TB) leukemia): > 100 µM
TGI (HOP-62 NSCLC): > 100 µM
TGI (HOP-92 NSCLC): > 100 µM
TGI (HS 578T breast): > 100 µM
TGI (HT29 colon): > 100 µM
TGI (IGROV1 ovarian): > 100 µM
TGI (K-562 leukemia): > 100 µM
TGI (KM12 colon): > 100 µM
TGI (LOX IMVI melanoma): > 100 µM
TGI (M14 melanoma): > 100 µM
TGI (MALME-3M melanoma): > 100 µM
TGI (MCF7 breast): > 100 µM
TGI (MDA-MB-231 breast): > 100 µM
TGI (MDA-MB-435): > 100 µM
TGI (MDA-N): > 100 µM
TGI (MOLT-4 leukemia): > 100 µM
TGI (NCI-H226 lung): > 100 µM
TGI (NCI-H23 lung): > 100 µM
TGI (NCI-H460 lung): > 100 µM
TGI (NCI-H522 lung): > 100 µM
TGI (NCI/ADR-RES ovarian): > 100 µM
TGI (OVCAR-3 ovarian): > 100 µM
TGI (OVCAR-4 ovarian): > 100 µM
TGI (OVCAR-5 ovarian): > 100 µM
TGI (OVCAR-8 ovarian): > 100 µM
TGI (PC-3 prostate): > 100 µM
TGI (RPMI-8226 leukemia): > 100 µM
TGI (SF-268 CNS): > 100 µM
TGI (SF-295 CNS): > 100 µM
TGI (SF-539 CNS): > 100 µM
TGI (SK-MEL-2 melanoma): > 100 µM
TGI (SK-MEL-28 melanoma): > 100 µM
TGI (SK-MEL-5 melanoma): > 100 µM
TGI (SN12C renal): > 100 µM
TGI (SNB-19 CNS): > 100 µM
TGI (SNB-75 CNS): > 100 µM
TGI (SR leukemia): > 100 µM
TGI (SW-620 colon): > 100 µM
TGI (T-47D breast): > 100 µM
TGI (TK-10 renal): > 100 µM
TGI (U251 CNS): > 100 µM
TGI (UACC-257 melanoma): > 100 µM
TGI (UO-31 renal): > 100 µM

COc1cccc(N/C(C)=C2/CCOC2=O)c1
TGI (A498 renal): > 10 µM
TGI (A549 NSCLC): > 10 µM
TGI (ACHN renal): > 10 µM
TGI (CAKI-1 renal): > 10 µM
TGI (CCRF-CEM leukemia): > 10 µM
TGI (COLO 205 colon): > 10 µM
TGI (DU-145 prostate): > 10 µM
TGI (EKVX NSCLC): > 10 µM
TGI (HCC-2998 colon): > 10 µM
TGI (HCT-116 colon): > 10 µM
TGI (HCT-15 colon): > 10 µM
TGI (HL-60(TB) leukemia): > 10 µM
TGI (HOP-62 NSCLC): > 10 µM
TGI (HS 578T breast): > 10 µM
TGI (HT29 colon): > 10 µM
TGI (IGROV1 ovarian): > 10 µM
TGI (KM12 colon): > 10 µM
TGI (LOX IMVI melanoma): > 10 µM
TGI (M14 melanoma): > 10 µM
TGI (MALME-3M melanoma): > 10 µM
TGI (MCF7 breast): > 10 µM
TGI (MDA-MB-231 breast): > 10 µM
TGI (MDA-MB-435): > 10 µM
TGI (MDA-N): > 10 µM
TGI (MOLT-4 leukemia): > 10 µM
TGI (NCI-H226 lung): > 10 µM
TGI (NCI-H23 lung): > 10 µM
TGI (NCI-H460 lung): > 10 µM
TGI (NCI-H522 lung): > 10 µM
TGI (NCI/ADR-RES ovarian): > 10 µM
TGI (OVCAR-3 ovarian): > 10 µM
TGI (OVCAR-4 ovarian): > 10 µM
TGI (OVCAR-5 ovarian): > 10 µM
TGI (OVCAR-8 ovarian): > 10 µM
TGI (PC-3 prostate): > 10 µM
TGI (RPMI-8226 leukemia): > 10 µM
TGI (RXF 393 renal): > 10 µM
TGI (SF-268 CNS): > 10 µM
TGI (SF-295 CNS): > 10 µM
TGI (SF-539 CNS): > 10 µM
TGI (SK-MEL-2 melanoma): > 10 µM
TGI (SK-MEL-28 melanoma): > 10 µM
TGI (SK-MEL-5 melanoma): > 10 µM
TGI (SK-OV-3 ovarian): > 10 µM
TGI (SN12C renal): > 10 µM
TGI (SNB-19 CNS): > 10 µM
TGI (SNB-75 CNS): > 10 µM
TGI (SR leukemia): > 10 µM
TGI (SW-620 colon): > 10 µM
TGI (T-47D breast): > 10 µM
TGI (TK-10 renal): > 10 µM
TGI (U251 CNS): > 10 µM
TGI (UACC-62 melanoma): > 10 µM
TGI (UO-31 renal): > 10 µM

CCOC(=O)NN(C(=O)OCC)c1ccc(N=Nc2ccc(OC)cc2)n1C
TGI (786-0 renal): 97.9 µM
TGI (A498 renal): 56.1 µM
TGI (A549 NSCLC): 63.5 µM
TGI (ACHN renal): 58.2 µM
TGI (COLO 205 colon): 41.3 µM
TGI (EKVX NSCLC): > 100 µM
TGI (HCC-2998 colon): 83.6 µM
TGI (HCT-116 colon): 34.4 µM
TGI (HCT-15 colon): 39.1 µM
TGI (HL-60(TB) leukemia): 50.5 µM
TGI (HOP-62 NSCLC): 86.8 µM
TGI (HOP-92 NSCLC): 78.5 µM
TGI (HS 578T breast): > 100 µM
TGI (HT29 colon): 58.3 µM
TGI (IGROV1 ovarian): 87.2 µM
TGI (K-562 leukemia): 71.4 µM
TGI (KM12 colon): 76.9 µM
TGI (LOX IMVI melanoma): 41.5 µM
TGI (M14 melanoma): 50 µM
TGI (MALME-3M melanoma): 62.7 µM
TGI (MCF7 breast): 31.8 µM
TGI (MDA-MB-231 breast): 65.5 µM
TGI (MDA-MB-435): 56 µM
TGI (MDA-N): 40.7 µM
TGI (MOLT-4 leukemia): > 100 µM
TGI (NCI-H226 lung): 97.2 µM
TGI (NCI-H23 lung): > 100 µM
TGI (NCI-H522 lung): 60.4 µM
TGI (NCI/ADR-RES ovarian): 94.6 µM
TGI (OVCAR-3 ovarian): 53.2 µM
TGI (OVCAR-4 ovarian): > 100 µM
TGI (OVCAR-5 ovarian): > 100 µM
TGI (OVCAR-8 ovarian): > 100 µM
TGI (PC-3 prostate): 53.4 µM
TGI (RPMI-8226 leukemia): > 100 µM
TGI (RXF 393 renal): > 100 µM
TGI (SF-295 CNS): > 100 µM
TGI (SF-539 CNS): 40.5 µM
TGI (SK-MEL-2 melanoma): 29.4 µM
TGI (SK-MEL-5 melanoma): 32.6 µM
TGI (SK-OV-3 ovarian): > 100 µM
TGI (SN12C renal): > 100 µM
TGI (SNB-75 CNS): 46 µM
TGI (T-47D breast): 76.2 µM
TGI (TK-10 renal): > 100 µM
TGI (U251 CNS): > 100 µM
TGI (UACC-257 melanoma): 56.1 µM
TGI (UACC-62 melanoma): > 100 µM
TGI (UO-31 renal): 71 µM
